Test results published in patent US20080096907A1, “Aryl, Pyrimidyl Compounds, Pharmaceutical Compositions Comprising them, Their Use as Antimicrobial Agents” (INSTITUT PASTEUR, priority 2004, published 2008).
In brackets after ≈: the same amount, converted by molar mass. Like-named read-outs stand apart in the source and are kept apart here.

B1: TMPKh (human TMPK) (Homo sapiens) (protein)
chain: MAARRGALIVLEGVDRAGKSTQSRKLVEALCAAGHRAELLRFPERSTEIGKLLSSYLQKKSDVEDHSVHLLFSANRWEQVPLIKEKLSQGVTLVVDRYAFSGVAFTGAKENFSLDWCKQPDVGLPKPDLVLFLQLQLADAAKRGAFGHERYENGAFQERALRCFHQLMKDTTLNWKMVDASKSIEAVHEDIRVLSEDAIRTATEKPLGELWK

Tests used:
[1] = target: TMPKmt (M. tuberculosis TMPK) (Mycobacterium tuberculosis, UniProt P9WKE1); experiment: biochemical; assay type: biochemical
[2] = system: Mycobacterium tuberculosis H37Ra; experiment: IC50 on cultures of Mycobacterium tuberculosis H37Ra; assay type: cell-based
Description: The IC50 value for three compounds has been measured on cultures of Mycobacterium tuberculosis H37Ra.

VERO cells = experiment: cytotoxicity on VERO cells; assay type: cell-based
Experimental: Cytotoxicity: The molecule 22 has been tested for its cytotoxicity on VERO cells. It has been determined that no growth inhibition, and consequently no cytotoxic activity, could be detected up to a concentration of 250 μg/ml of compound 22.

[3] = system: Cc1cn([C@H]2C[C@H](O)[C@@H](COP(=O)(O)O)O2)c(=O)[nH]c1=O; experiment: purified protein, by the assay type; conditions: other: substrate Km; pH 7.4; 30.0 °C
[4] = substrate: Cc1cn([C@H]2C[C@H](O)[C@@H](COP(=O)(O)O)O2)c(=O)[nH]c1=O; experiment: purified protein, by the assay type; conditions: other: substrate Km; pH 7.4; 30.0 °C; remark: listed apart in the source
[5] = pH 7.4, read-out: TMPKmt W1002 Ki

Sequence of TMPKmt (M. tuberculosis TMPK) (P9WKE1 whole entry, looked up): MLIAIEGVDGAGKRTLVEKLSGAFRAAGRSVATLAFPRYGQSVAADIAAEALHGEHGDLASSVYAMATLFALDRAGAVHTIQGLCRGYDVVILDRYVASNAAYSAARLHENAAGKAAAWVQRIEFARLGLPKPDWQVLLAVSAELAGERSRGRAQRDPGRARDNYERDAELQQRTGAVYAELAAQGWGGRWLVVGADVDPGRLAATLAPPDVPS

Molecule	Ki [1, 5]	Ki ([1]; pH 7.4, read-out: Ki)	other results
Cc1cn(Cc2ccc(CCC(N)=O)cc2)c(=O)[nH]c1=O [Compound 1, 3-[4-(5-Methyl-2,4-dioxo-3,4-dihydro-2H-pyrimidin-1-ylmethyl)-phenyl]-propionamide]	110 µM	–	–
Cc1cn(Cc2ccc(CCC(=O)O)cc2)c(=O)[nH]c1=O [Compound 2, 3-[4-(5-Methyl-2,4-dioxo-3,4-dihydro-2H-pyrimidin-1-ylmethyl)-phenyl]-propionic acid]	68 µM	–	–
Cc1cn(Cc2ccccc2)c(=O)[nH]c1=O [Compound 3, 5-Methyl-1-Benzyl-1H-pyrimidine-2,4-dione]	75 µM	–	–
O=c1[nH]c(=O)n(Cc2ccccc2)cc1Br [Compound 4, 5-Bromo-1-benzyl-1H-pyrimidine-2,4-dione]	44 µM	–	–
Cc1cn(Cc2ccc(F)cc2)c(=O)[nH]c1=O [Compound 6, 5-Methyl-1-(4-fluoro-benzyl)-1H-pyrimidine-2,4-dione]	45 µM	–	–
Cc1cn(Cc2cccc(F)c2)c(=O)[nH]c1=O [Compound 7, 5-Methyl-1-(3-fluoro-benzyl)-1H-pyrimidine-2,4-dione]	90 µM	–	–
Cc1cn(Cc2ccc(F)c(F)c2)c(=O)[nH]c1=O [Compound 8, 5-Methyl-1-(3,4-difluoro-benzyl)-1H-pyrimidine-2,4-dione]	67 µM	–	–
Cc1cn(Cc2ccc(Cl)cc2)c(=O)[nH]c1=O [Compound 9, 5-Methyl-1-(4-chloro-benzyl)-1H-pyrimidine-2,4-dione]	50 µM	–	–
Cc1cn(Cc2cccc(Cl)c2)c(=O)[nH]c1=O [Compound 10, 5-Methyl-1-(3-chloro-benzyl)-1H-pyrimidine-2,4-dione]	44 µM	–	–
Cc1cn(Cc2ccc(Br)cc2)c(=O)[nH]c1=O [Compound 11, 5-Methyl-1-(4-bromo-benzyl)-1H-pyrimidine-2,4-dione]	38 µM	–	–
N#Cc1cn(Cc2ccccc2)c(=O)[nH]c1=O [Compound 12]	980 µM	–	–
N#Cc1cn(Cc2cccc(Cl)c2)c(=O)[nH]c1=O [Compound 13]	810 µM	–	–
Cc1cn(Cc2ccc(C=CC(N)=O)cc2)c(=O)[nH]c1=O [Compound 14, 3-[4-(5-Methyl-2,4-dioxo-3,4-dihydro-2H-pyrimidin-1-ylmethyl)-phenyl]-acrylamide]	240 µM	–	–
CCOC(=O)CCc1ccc(Cn2cc(C)c(=O)[nH]c2=O)cc1 [Compound 19, 3-[4-(5-Methyl-2,4-dioxo-3,4-dihydro-2H-pyrimidin-1-ylmethyl)-phenyl]-propionic acid ethyl ester]	265 µM	–	–
Cc1cn(Cc2ccc(CCCC(=O)O)cc2)c(=O)[nH]c1=O [Compound 20, 4-[4-(5-Methyl-2,4-dioxo-3,4-dihydro-2H-pyrimidin-1-yl-methyl)-phenyl]-butyric acid]	16.5 µM	–	IC50 [2]: 100 µg/mL (≈ 331 µM)
O=C(O)CCCc1ccc(Cn2cc(Br)c(=O)[nH]c2=O)cc1 [Compound 21, 4-[5-Bromo-(2,4-dioxo-3,4-dihydro-2H-pyrimidin-1-ylmethyl)-phenyl]butyric acid]	–	–	IC50 [2]: 50 µg/mL (≈ 136 µM)
Cc1cn(Cc2ccc(CCCCCC(=O)O)cc2)c(=O)[nH]c1=O [Compound 22, 6-[4-(5-Methyl-2,4-dioxo-3,4-dihydro-2H-pyrimidin-1-yl-methyl)-phenyl]-hexanoic acid]	32 µM	–	IC50 [2]: 25 µg/mL (≈ 75.7 µM); concentration up to which no growth inhibition / no cytotoxic activity could be detected (VERO cells): > 250 µg/mL
Cc1cn(Cc2ccc(C#CCCO)cc2)c(=O)[nH]c1=O [Compound 30, 1-[4-(4-Hydroxy-but-1-ynyl)-benzyl]-5-methyl-1H-pyrimidine-2,4-dione]	–	86 µM	–

Molecule	Ki [1, 5]	Ki ([1]; pH 7.4, read-out: Ki)	other results
Cc1cn(Cc2ccc(CCCCO)cc2)c(=O)[nH]c1=O [Compound 31, 1-[4-(4-Elydroxy-butyl)-benzyl]-5-methyl-1H-pyrimidine-2,4-dione]	–	63 µM	–
O=C(O)CCCc1ccc(Cn2cc(Cl)c(=O)[nH]c2=O)cc1 [Compound 39]	–	15 µM	–
COC(=O)CCCc1ccc(Cn2cc(C)c(=O)[nH]c2=O)cc1 [Compound 40a]	–	70 µM	–
Cc1cn(Cc2ccc(CCCC(N)=O)cc2)c(=O)[nH]c1=O [Compound 40b]	–	139 µM	–
Cc1cn(Cc2ccc(CCCCC(=O)O)cc2)c(=O)[nH]c1=O [Compound 45, 5-[4-(5-Methyl-2,4-dioxo-3,4-dihydro-2H-pyrimidin-1-yl-methyl)-phenyl]-pentanoic acid]	–	72 µM	–
O=C(O)CCCCc1ccc(Cn2cc(Br)c(=O)[nH]c2=O)cc1 [Compound 48, 5-[4-(5-Bromo-2,4-dioxo-3,4-dihydro-2H-pyrimidin-1-yl-methyl)-phenyl]-pentanoic acid]	–	47 µM	–
Cc1cn(Cc2ccc(C#CCCCC(=O)O)cc2)c(=O)[nH]c1=O [Compound 51, 6-[4-(5-Methyl-2,4-dioxo-3,4-dihydro-2H-pyrimidin-1-yl-methyl)-phenyl]-hexyn-5-oic acid]	–	119 µM	–
Cc1cn(Cc2ccc(C#CCCCC(N)=O)cc2)c(=O)[nH]c1=O [Compound 53, 6-[4-(5-Methyl-2,4-dioxo-3,4-dihydro-2H-pyrimidin-1-yl-methyl)-phenyl]-hexyn-5-oic acid amide]	–	113 µM	–
Cc1cn(Cc2ccc(CCCCCC(N)=O)cc2)c(=O)[nH]c1=O [Compound 54, 6-[4-(5-Methyl-2,4-dioxo-3,4-dihydro-2H-pyrimidin-1-yl-methyl)-phenyl]-hexanoic acid amide]	–	33 µM	–
O=C(O)CCCCCc1ccc(Cn2cc(Br)c(=O)[nH]c2=O)cc1 [Compound 58, 6-[4-(5-Bromo-2,4-dioxo-3,4-dihydro-2H-pyrimidin-1-yl-methyl)-phenyl]-hexanoic acid]	–	42 µM	–
O=C(O)CCCCCc1ccc(Cn2cc(Cl)c(=O)[nH]c2=O)cc1 [Compound 59, 6-[4-(5-Chloro-2,4-dioxo-3,4-dihydro-2H-pyrimidin-1-yl-methyl)-phenyl]-hexanoic acid]	–	–	Ki [1]: 49 µM
NC(=O)CCCCCc1ccc(Cn2cc(Br)c(=O)[nH]c2=O)cc1 [Compound 61, 6-[4-(5-Bromo-2,4-dioxo-3,4-dihydro-2H-pyrimidin-1-yl-methyl)-phenyl]-hexanoic acid amide]	–	24 µM	–
NC(=O)CCCCCc1ccc(Cn2cc(Cl)c(=O)[nH]c2=O)cc1 [Compound 62, 6-[4-(5-Chloro-2,4-dioxo-3,4-dihydro-2H-pyrimidin-1-yl-methyl)-phenyl]-hexanoic acid amide]	–	–	Ki [1]: 32 µM
Cc1cn(Cc2ccc(CSCC(=O)O)cc2)c(=O)[nH]c1=O [Compound 63, 3-[4-(5-Methyl-2,4-dioxo-3,4-dihydro-2H-pyrimidin-1-ylmethyl)-benzylsulfanyl]-acetic acid]	–	15 µM	–
Cc1cn(Cc2ccc(CC(F)CC=O)cc2)c(=O)[nH]c1=O (stereo not drawn) [Compound 64, 3-Fluoro-4-[4-(5-methyl-2,4-dioxo-3,4-dihydro-2H-pyrimidin-1-yl-methyl)-phenyl]-butyraldehyde]	–	–	Ki [1]: 26 µM
Cc1cn(Cc2ccc(CC(F)CC(=O)O)cc2)c(=O)[nH]c1=O (stereo not drawn) [Compound 65, 3-Fluoro-4-[4-(5-Methyl-2,4-dioxo-3,4-dihydro-2H-pyrimidin-1-yl-methyl)-phenyl]-butyric acid]	–	–	Ki [1]: 63 µM
TMPKmt (M. tuberculosis TMPK) (Mycobacterium tuberculosis H37Rv)	–	–	Km [3]: 4.5 µM
B1	–	–	Km [4]: 5 µM
